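GI50 marks 50% less growth. TGI marks complete inhibition of growth.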
What was measured:
Test in all cases: growth of human tumour cells (NCI), 384-well format
[1] = system: K-562 leukemia
[2] = system: SF-268 CNS
[3] = system: COLO 205 colon
[4] = system: HT29 colon
[5] = system: NCI-H23 lung
[6] = system: HCT-15 colon
[7] = system: A498 renal
[8] = system: 786-0 renal
[9] = system: UACC-62 melanoma
[10] = system: M14 melanoma
[11] = system: SF-295 CNS
[12] = system: SR leukemia
[13] = system: TK-10 renal
[14] = system: ACHN renal
[15] = system: MOLT-4 leukemia
[16] = system: NCI-H522 lung
[17] = system: SN12C renal
[18] = system: RPMI-8226 leukemia
[19] = system: LOX IMVI melanoma
[20] = system: SK-OV-3 ovarian
[21] = system: OVCAR-5 ovarian
[22] = system: U251 glioblastoma
[23] = system: MDA-MB-435 melanoma
[24] = system: NCI/ADR-RES ovarian
[25] = system: NCI-H460 NSCLC
[26] = system: HS 578T breast
[27] = system: MDA-MB-231 breast
[28] = system: HCC-2998 colon
[29] = system: NCI-H322M lung
[30] = system: MCF7 breast
[31] = system: UO-31 renal
[32] = system: A549 NSCLC
[33] = system: SNB-19 CNS
[34] = system: BT-549 breast
[35] = system: SK-MEL-2 melanoma
[36] = system: HOP-92 NSCLC
[37] = system: UACC-257 melanoma
[38] = system: NCI-H226 lung
[39] = system: DU-145 prostate
[40] = system: SK-MEL-5 melanoma
[41] = system: OVCAR-4 ovarian
[42] = system: PC-3 prostate
[43] = system: KM12 colon
[44] = system: CAKI-1 renal
[45] = system: SNB-75 CNS
[46] = system: SW-620 colon
[47] = system: CCRF-CEM leukemia
[48] = system: T-47D breast
[49] = system: SK-MEL-28 melanoma
[50] = system: IGROV1 ovarian
[51] = system: MDA-MB-468 breast
[52] = system: HCT-116 colon
[53] = system: HOP-62 NSCLC
[54] = system: RXF 393 renal
[55] = system: SF-539 CNS
[56] = system: HL-60(TB) leukemia
[57] = system: MALME-3M melanoma
[58] = system: OVCAR-3 ovarian

SMILES: COc1cccc(Nc2ncnn3ccc(CN4CC[C@@H](N)[C@H](O)C4)c23)c1
- GI50 [1]: 0.0847 µM
- TGI [1]: 0.228 µM
- GI50 [2]: 4.4 µM
- TGI [2]: 70.3 µM
- GI50 [3]: 14.8 µM
- TGI [3]: 28.2 µM
- GI50 [4]: 12.8 µM
- TGI [4]: 26.4 µM
- GI50 [5]: 2.42 µM
- TGI [5]: 16.8 µM
- GI50 [6]: 2.32 µM
- TGI [6]: 32.7 µM
- GI50 [7]: 1.3 µM
- TGI [7]: 9 µM
- GI50 [8]: 0.989 µM
- TGI [8]: 14.4 µM
- GI50 [9]: 16.1 µM
- TGI [9]: 29.8 µM
- GI50 [10]: 19 µM
- TGI [10]: 33.2 µM
- GI50 [11]: 13.9 µM
- TGI [11]: 30.9 µM
- GI50 [12]: 12.5 µM
- TGI [12]: 25.2 µM
- GI50 [13]: 0.0524 µM
- TGI [13]: 1.27 µM
- GI50 [14]: 0.0368 µM
- TGI [14]: 5.84 µM
- GI50 [15]: 0.8 µM
- TGI [15]: 13.9 µM
- TGI [16]: 9.99 µM
- GI50 [17]: 0.18 µM
- TGI [17]: 12 µM
- GI50 [18]: 16.4 µM
- TGI [18]: 30.2 µM
- GI50 [19]: 7.68 µM
- TGI [19]: 20.4 µM
- GI50 [20]: 0.0333 µM
- TGI [20]: 0.607 µM
- GI50 [21]: 0.686 µM
- TGI [21]: 43.9 µM
- GI50 [22]: 12.9 µM
- TGI [22]: 26.4 µM
- GI50 [23]: 18.2 µM
- TGI [23]: 36.6 µM
- GI50 [24]: 11.2 µM
- TGI [24]: 27.6 µM
- GI50 [25]: 11.3 µM
- TGI [25]: 24.3 µM
- GI50 [26]: 1.49 µM
- TGI [26]: 6.24 µM
- GI50 [27]: 1.99 µM
- TGI [27]: 25.4 µM
- GI50 [28]: 12.5 µM
- TGI [28]: 25.5 µM
- GI50 [29]: 0.0313 µM
- TGI [29]: 0.941 µM
- GI50 [30]: 13.9 µM
- TGI [30]: 27.4 µM
- GI50 [31]: 1.1 µM
- TGI [31]: 7.47 µM
- GI50 [32]: 0.902 µM
- TGI [32]: 14.4 µM
- GI50 [33]: 15.4 µM
- TGI [33]: 83.6 µM
- GI50 [34]: 7.04 µM
- TGI [34]: 20.5 µM
- GI50 [35]: 26.7 µM
- TGI [35]: 41.5 µM
- GI50 [36]: 6.62 µM
- TGI [36]: 28.9 µM
- GI50 [37]: 11.3 µM
- TGI [37]: 23.5 µM
- GI50 [38]: 1.97 µM
- TGI [38]: 12.4 µM
- GI50 [39]: 1.11 µM
- TGI [39]: 28.4 µM
- GI50 [40]: 15.6 µM
- TGI [40]: 29 µM
- GI50 [41]: 24.8 µM
- TGI [41]: > 100 µM
- GI50 [42]: 13.3 µM
- TGI [42]: 87.7 µM
- GI50 [43]: 3.54 µM
- TGI [43]: 15.7 µM
- GI50 [44]: 0.295 µM
- TGI [44]: 7.12 µM
- GI50 [45]: 0.247 µM
- TGI [45]: 1.37 µM
- GI50 [46]: 17.5 µM
- TGI [46]: 32.5 µM
- GI50 [47]: 14.7 µM
- TGI [47]: 28 µM
- GI50 [48]: 15.8 µM
- TGI [48]: 30.2 µM
- GI50 [49]: 18.3 µM
- TGI [49]: 32.4 µM
- TGI [50]: 0.512 µM
- GI50 [51]: 0.0266 µM
- TGI [51]: 0.203 µM
- GI50 [52]: 12.3 µM
- TGI [52]: 25.6 µM
- GI50 [53]: 2.7 µM
- TGI [53]: 30.2 µM
- GI50 [54]: 0.435 µM
- TGI [54]: 3.21 µM
- GI50 [55]: 1.55 µM
- TGI [55]: 13.1 µM
- GI50 [56]: 17.6 µM
- TGI [56]: 31.5 µM
- GI50 [57]: 12.8 µM
- TGI [57]: 25.5 µM
- GI50 [58]: 0.0815 µM
- TGI [58]: 21.8 µM

From PubChem BioAssay (NCI)
